# Assay results published in US12516027B2, “Lappaconitine derivative and use thereof” (priority 2020, dated 2026).
# Experiments:
# [1] = test system: ovariectomized (OVX) mice; test: Animal model of osteoporosis, ovariectomized (OVX) mice; format: in vivo
# From the text: An ability of QG3030 to treat osteoporosis was confirmed in an animal model of ovariectomized (OVX) mice commonly used as an animal model of osteoporosis.
# As the positive controls, parathyroid hormone (PTH)-based Forteo (Eli Lilly) used as an osteoporosis therapeutic agent through an osteogenesis-promoting mechanism, and alendronate-based Fosamax (Merck) serving as a bone resorption inhibitor were subcutaneously administered. As the negative control, water (H2O) was orally administered, and QG3030 was orally administered at a concentration of 5 or 30 mg/kg (FIG. 9A). After the drug was administered daily for 10 weeks, the bone mineral density (BMD) was measured.
# In Table 2, BMD represents bone mineral density, TV represents total volume, BV represents bone volume, Tb.Th represents trabecular thickness, and Tb.N represents trabecular number.
# [2] = test system: human MSCs; test: Osteocytic differentiation potential in MSCs (Alizarin Red and Von Kossa staining); format: cell-based; settings: 0.1 μM, cultured for 3 weeks, like OIM positive control
# Experimental: Osteoblasts involved in the osteogenesis are formed by differentiating mesenchymal stem cells (MSCs) using external stimuli and transcription factors involved in various signaling pathways (Garg et al., Orthop Surg. 2017). Accordingly, an experiment was performed to check whether QG3030 was able to induce the differentiation of human MSCs into osteoblasts.
# MSCs from normal humans were purchased from the American Type Culture Collection (ATCC, U.S.A), and cultured in an MSC-specific culture medium (Gibco). The cultured cells were digested with trypsin, centrifuged, and then seeded in a 24-well plate at a concentration of 3×10^4 cells/well. The next day, the MSC culture medium was exchanged with a DMEM (DMEM/10% FBS/penicillin/streptomycin) as an experimental medium, and the cells were treated with QG3030 alone (0.1 μM) or OIM (osteogenesis-inducing medium; StemPro Osteogenesis Differentiation Kit, ThermoFisher Scientific Inc.) as the positive control. Thereafter, the cell culture medium was exchanged with a fresh DMEM every day, treated with QG3030 or OIM, and then cultured for 3 weeks. After the culture was completed, the cells were stained with Alizarin Red for detection of calcium and Von Kossa for detection of mineral production.
# [3] = test system: RUNX2; test: Change in expression of RUNX2 in MSCs (antibody staining, fluorescence microscope); format: cell-based, human; settings: 0.001 μM, once a day for 7 and 14 days; increased with increasing concentration
# From the text: (§1) Runt-related transcription factor 2 (RUNX2; core-binding factor alpha, Cbfa1) is the most important transcriptional regulatory factor for osteogenesis, and is known to be involved in osteoblast differentiation, matrix generation, and mineralization during osteogenesis (Bruderer M, et al., Eur Cell Mater. 2014). Also, RUNX2 itself may be regulated by a bone morphogenetic protein (BMP), which is a type of cytokine (Sun J, et al., Mol Med Rep. 2015). Accordingly, it was confirmed whether QG3030 promotes the expression of osteogenesis-related specific factors to induce osteogenesis.
# (§2) MSCs were seeded in a 24-well plate at a concentration of 3×10^4 cells/well, and cultured for 24 hours. From the next day, the MSCs were treated with different concentrations (0.001 μM, 0.01 μM, and 0.1 μM) of QG3030 once a day for 7 days and 14 days. After the experiment was completed, the MSCs were stained with RUNX2 and BMP-2 antibodies, and observed using a fluorescence microscope.
# [4] = test system: BMP-2; test: Change in expression of BMP-2 in MSCs (antibody staining, fluorescence microscope); format: cell-based, human; settings: 0.001 μM, once a day for 7 and 14 days; increased with increasing concentration
# From the text: as §1, §2
# [5] = test system: osteocalcin; test: Change in expression of osteocalcin in MSCs (antibody staining, fluorescence microscope); format: cell-based, human; settings: 0.001 μM, within 7 days
# Experimental: Osteocalcin is expressed only in osteoblasts (Lee et al., Cell 2007), and is used as a biomarker useful for osteogenesis (Bharadwaj et al., Osteoporosis International., 2009).
# An experiment was performed in the same manner as described in Experimental Example 1-2, and MSCs were then stained with an osteocalcin antibody, and observed using a fluorescence microscope.
# [6] = test system: ERK, Akt, WNK1; test: Phosphokinase antibody array in MSCs; format: cell-based, human; settings: 1 μM, 24 hours, compared to control DMSO
# Experimental: To study a mechanism by which QG3030 differentiates MSCs into osteoblasts, related signaling was investigated.
# MSCs cultured in an experimental DMEM were treated with QG3030 (1 μM) or the control compound (DMSO), and cultured for 24 hours. The cells were recovered, and an experiment was then performed according to a method specified in a phosphokinase antibody array kit (R&D Systems) containing antibodies that specifically recognize phosphorylated forms of 43 kinases. Then, samples were analyzed using an ImageJ (NIH, USA) program.
# [7] = test system: MSCs; test: Osteoblast differentiation of MSCs with kinase inhibitor combination (Alizarin Red); format: cell-based, human; settings: QG3030 1 μM + kinase inhibitor 1 μM, 3 weeks, compared to QG3030-alone group
# Experimental: To further study the mechanism by which QG3030 differentiates MSCs into osteoblasts, an experiment was performed using a kinase inhibitor.
# After MSCs were cultured, the MSCs were simultaneously treated with a kinase inhibitor (1 μM) and QG3030 (1 μM). The next day, the medium was exchanged, and the MSCs were simultaneously treated again with the kinase inhibitor and QG3030. This procedure was repeated for 3 weeks, and the MSCs were then stained with Alizarin Red.
# [8] = test system: ERK; test: Level of phosphorylated ERK (pERK) in MSCs over time; format: cell-based, human
# Experimental: Accordingly, the level of the phosphorylated ERK according to time elapsed after MSCs were treated with QG3030 was determined.
# Also, to determine whether QG3030 induces ERK phosphorylation for a long period, MSCs were treated with various concentrations (0.001, 0.01, and 0.1 μM) of QG3030, and the level of phosphorylated ERK (pERK) was checked after 7 days and 14 days.
# [9] = test system: RUNX2; test: RUNX2 expression in MSCs with QG3030 and ERK inhibitor PD98059; format: cell-based, human; settings: same at 24 hours
# Experimental: (§3) ERK may induce the phosphorylation of RUNX2 to increase transcriptional activity and may be involved in stability to increase an amount of RUNX2 protein (Greenblatt et al., MB, Annu Rev Cell Dev Biol. 2013). Therefore, an increase in ERK phosphorylation by QG3030 may induce RUNX2 expression so that QG3030 can be involved in the differentiation of MSCs into osteoblasts. To verify this, an expression level of RUNX2 was determined after MSCs were treated with a combination of QG3030 (0.1 μM) and the ERK inhibitor PD98059 (50 μM).
# [10] = test system: ERK; test: Phosphorylated ERK in MSCs with QG3030 and ERK inhibitor PD98059; format: cell-based, human
# Experimental: as §3
# [11] = test system: Sprague Dawley (SD) rat; test: Animal model of bone fracture, ilium bone defect; format: in vivo
# Experimental: The ilium of a Sprague Dawley (SD) rat was subjected to drilling with a diameter of 2 mm to induce a bone defect, and QG3030 (6, 30, and 150 μg/10 μL) mixed with an excipient (collagen sponge, CollaCote®) was implanted into a bone defect site to evaluate an osteoanagenic effect (FIG. 11).
# To statistically quantify the osteoanagenic capacity of QG3030, a degree of osteogenesis was realized with a 3-D image, and a region of interest (ROI) was set to analyze parameters such as bone volume/total volume (BV/TV; %), trabecular thickness (Tb.Th; mm), trabecular number (Tb.N; 1/mm), and trabecular separation (Tb.Sp; mm).
# [12] = OVX mice, positive control, subcutaneous, daily for 10 weeks
# [13] = OVX mice, 5 mg/kg oral, daily for 10 weeks
# [14] = OVX mice, 30 mg/kg oral, daily for 10 weeks
# [15] = OVX mice, 5 or 30 mg/kg oral, daily for 10 weeks
# [16] = implanted in collagen sponge at bone defect site, QG3030 low, medium and high, BMP2 1 ug/10 uL
smiles,measurement,setting,value
"NCCCC(O)(P(=O)(O)O)P(=O)(O)O [Fosamax, reference compound]",BMD,[1]; [12],0.2135 g/mL
same,BV,[1]; [12],1.017 mm^3
same,BV/TV,[1]; [12],6.521%
same,TV,[1]; [12],15.51 mm^3
"CCN1C[C@]2(O)CC[C@H](OC)C34C1C(C[C@@H]32)[C@]1(O)C[C@H](OC)[C@@H]2C(=O)C(=O)[C@H]4[C@@H]21 [QG3030, (2aR,2a1S,3S,4aS,8S,11S,11bS,12S)-6-ethyl-4a,8-dihydroxy-3,11-dimethoxy-tetradecahydro-8,11a,5-(epiethane[1,1,2]triyl)cyclopenta[7,1]indeno[5,4-b]azocin-1,2-dione]",calcium (Alizarin Red staining),[2],induced calcium and mineral production
same,mineral production (Von Kossa staining),[2],induced calcium and mineral production
same,expression of RUNX2,[3],strongly induced the expression
same,expression of BMP-2,[4],strongly induced the expression
same,expression of osteocalcin,[5],strongly induced the expression of osteocalcin
same,"phosphorylation of signaling molecules such as ERK, Akt, WNK1",[6],strongly increased the phosphorylation
same,"osteoblast differentiation ability of QG3030 (Alizarin Red) in combination with inhibitor of ERK, P38 or Akt",[7],inhibited
same,level of phosphorylated ERK (pERK),"[8]; 0.001, 0.01 and 0.1 μM, after 7 days and 14 days",significantly increased
same,level of phosphorylated ERK (pERK),[8]; after 24 hours after treatment,increased
same,level of phosphorylated ERK (pERK) compared with positive control (OIM),"[8]; low concentration, 7 days, lasted until 14 days",greater than that of the positive control
same,level of phosphorylated ERK (pERK),[8]; within 30 minutes after treatment,significantly increased
same,expression of RUNX2,"[9]; QG3030 0.1 μM alone, within 12 hours",significantly increased
same,phosphorylation level of ERK,[10]; QG3030 0.1 μM alone,increased
same,BMD,[1]; [13],0.2136 g/mL
same,BV,[1]; [13],1.107 mm^3
same,BV/TV,[1]; [13],6.713%
same,TV,[1]; [13],16.57 mm^3
same,Tb. N,[1]; [13],0.9472 1/mm
same,Tb. Th,[1]; [13],0.07081 mm
same,BMD,[1]; [14],0.2301 g/mL
same,BV,[1]; [14],1.156 mm^3
same,BV/TV,[1]; [14],7.731%
same,TV,[1]; [14],14.92 mm^3
same,Tb. N,[1]; [14],1.044 1/mm
same,Tb. Th,[1]; [14],0.07492 mm
same,bone mineral density compared to the negative control,[1]; [15],significantly increased
same,effect on bone mineral density compared with Forteo,[1]; [15],significantly superior to that of Forteo
same,expression of RUNX2 in the femurs (tissue staining),[1]; ovariectomized mice,significantly increased
same,osteogenesis in the femurs (tissue staining),[1]; ovariectomized mice,induced osteogenesis
same,"tissue staining markers (H&E, collagen, type I collagen, osteocalcin) at bone defect sites","[11]; QG3030 low, medium and high concentrations, effect similar to BMP2",markers were expressed
same,bone quality by Tb.N and Tb.Sp (other than Tb.Th) compared to DMSO-treated group,[11]; [16],high-quality bone tissue was statistically significantly formed
same,bone volume/total volume (BV/TV) compared to negative control treated with DMSO,[11]; [16],increased to a similar level
same,quality of generated bone compared to BMP2,[11]; no statistical significance,better quality of bone compared to BMP2
"COc1cccc(-c2cc(=O)c3ccccc3o2)c1N [PD98059, reference compound]",expression of RUNX2,"[9]; combination of QG3030 0.1 μM and PD98059 50 μM, 12 hours",significantly decreased
same,increase in the phosphorylation level of ERK by QG3030,[10]; combination of QG3030 0.1 μM and PD98059 50 μM,inhibited
"CC[C@H](C)[C@H](NC(=O)[C@H](CCC(=O)O)NC(=O)[C@H](CO)NC(=O)[C@@H](NC(=O)[C@@H](N)CO)C(C)C)C(=O)N[C@@H](CCC(N)=O)C(=O)N[C@@H](CC(C)C)C(=O)N[C@@H](CCSC)C(=O)N[C@@H](Cc1cnc[nH]1)C(=O)N[C@@H](CC(N)=O)C(=O)N[C@@H](CC(C)C)C(=O)NCC(=O)N[C@@H](CCCCN)C(=O)N[C@@H](Cc1cnc[nH]1)C(=O)N[C@@H](CC(C)C)C(=O)N[C@@H](CC(N)=O)C(=O)N[C@@H](CO)C(=O)N[C@@H](CCSC)C(=O)N[C@@H](CCC(=O)O)C(=O)N[C@@H](CCCN=C(N)N)C(=O)N[C@H](C(=O)N[C@@H](CCC(=O)O)C(=O)N[C@@H](Cc1c[nH]c2ccccc12)C(=O)N[C@@H](CC(C)C)C(=O)N[C@@H](CCCN=C(N)N)C(=O)N[C@@H](CCCCN)C(=O)N[C@@H](CCCCN)C(=O)N[C@@H](CC(C)C)C(=O)N[C@@H](CCC(N)=O)C(=O)N[C@@H](CC(=O)O)C(=O)N[C@H](C(=O)N[C@@H](Cc1cnc[nH]1)C(=O)N[C@@H](CC(N)=O)C(=O)N[C@@H](Cc1ccccc1)C(=O)O)C(C)C)C(C)C [Forteo, reference compound]",BMD,[1]; [12],0.1997 g/mL
same,BV,[1]; [12],0.8791 mm^3
same,BV/TV,[1]; [12],5.735%
same,TV,[1]; [12],15.43 mm^3
